In US9981918B2, “Kynurenine-3-monooxygenase inhibitors, pharmaceutical compositions, and methods of use thereof” (CHDI Foundation, Inc., priority 2011, dated 2018):

The compounds below were run on KMO (assay: KMO inhibition: L-Kynurenine hydroxylation to 3-Hydroxy-Kynurenine monitored by LC/MS). Conditions: compound at 10 uM; footnote: some portion of activity of amides may be due to contribution of acid precursor.
Format: biochemical
Description: A generalized procedure for monitoring L-Kynurenine (KYN) hydroxylation to form product 3-Hydroxy-Kynurenine (30H-KYN) by LC/MS is described below. Product is quantified by multiple reaction monitoring using MS.
A method of monitoring L-Kynurenine (KYN) hydroxylation to form product 3-Hydroxy-Kynurenine (30H-KYN) by LC/MS is described below. Product is quantified by multiple reaction monitoring.
• Compound: Stock concentrations: 10 mM in 100% DMSO • Enzyme: KMO enzyme prepared at Evotec via mitochondria isolation from CHO-GST HIS KMO cells • Substrate: L-Kynurenine (Sigma: Cat# K3750) • [stock concentration: 10 mM in 100 mM potassium phosphate buffer, pH 7.4]
A method of monitoring L-Kynurenine (KYN) hydroxylation to form 3-Hydroxy-Kynurenine (30H-KYN) by LC/MS is described. Product is quantified by multiple reaction monitoring (MRM method).

Row | Structure (SMILES) | % Inhibition at 10 uM* [%]
1 | O=S(=O)(Nc1cc(-c2ccc(OC3CC3)c(Cl)c2)ncn1)c1ccccc1F [N-[6-(3-chloro-4-cyclopropoxyphenyl)pyrimidin-4-yl]-2-fluorobenzene-1-sulfonamide] | 96
2 | Nc1cc(-c2cc(C(=O)O)ncn2)ccc1Cl [6-(3-Amino-4-chloro-phenyl)-pyrimidine-4-carboxylic acid] | 101.01
3 | O=C(Nc1cccnc1)c1cc(-c2ccc(Cl)c(OC3CCOC3)c2)ncn1 (centres unmarked) [6-[4-Chloro-3-(tetrahydro-furan-3-yloxy)-phenyl]-pyrimidine-4-carboxylic acid pyridin-3-ylamide] | 88.39
4 | O=C1OCc2c1ncnc2-c1ccc(OC2CC2)c(Cl)c1 [4-(3-chloro-4-cyclopropoxyphenyl)-5H,7H-furo[3,4-d]pyrimidin-7-one] | 100
5 | O=C(O)c1cc(-c2ccc3ncccc3c2)ncn1 [6-Quinolin-6-yl-pyrimidine-4-carboxylic acid] | 100
6 | O=S(=O)(Nc1cc(-c2ccc(OC3CC3)c(Cl)c2)ncn1)c1ccc(F)cc1 [N-[6-(3-chloro-4-cyclopropoxyphenyl)pyrimidin-4-yl]-4-fluorobenzene-1-sulfonamide] | 98
7 | O=C(O)c1cc(-c2cc(Cl)c3c(c2)CCCN3)ncn1 [6-(8-chloro-1,2,3,4-tetrahydroquinolin-6-yl)pyrimidine-4-carboxylate] | 100
8 | C[S+]([O-])c1ccc(-c2cc(C(=O)O)ncn2)cc1Cl (centres unmarked) [6-[3-chloro-4-(methylsulfinyl)phenyl]pyrimidine-4-carboxylic acid] | 100
9 | O=S(=O)(Nc1cc(-c2ccc(OC3CC3)c(Cl)c2)ncn1)c1ccc(OC(F)(F)F)cc1 [N-[6-(3-chloro-4-cyclopropoxyphenyl)pyrimidin-4-yl]-4-(trifluoromethoxy)benzene-1-sulfonamide] | 88
10 | O=C(O)c1cc(-c2cc(Cl)c3oc(C4CC4)nc3c2)ncn1 [6-(7-chloro-2-cyclopropyl-1,3-benzoxazol-5-yl)pyrimidine-4-carboxylic acid] | 100
11 | O=C(O)c1cc(-c2ccc(OC3CC3)c(Cl)c2)ncn1 [6-(3-Chloro-4-cyclopropoxy-phenyl)-pyrimidine-4-carboxylic acid] | 100
12 | CCC(C)Oc1ccc(-c2cc(C(=O)O)ncn2)cc1Cl (stereo in doubt) [6-(4-(R)-sec-Butoxy-3-chloro-phenyl)-pyrimidine-4-carboxylic acid] | 100
13 | O=C(O)c1cc(-c2cc(Cl)c3occc3c2)ncn1 [6-(7-Chloro-benzofuran-5-yl)-pyrimidine-4-carboxylic acid] | 100
14 | O=C(O)c1cc(-c2ccc(OCCN3CCCCC3)c(Cl)c2)ncn1 [6-[3-Chloro-4-(2-piperidin-1-yl-ethoxy)-phenyl]-pyrimidine-4-carboxylic acid] | 90
15 | O=C1OCCc2c1ncnc2-c1ccc(OC2CC2)c(Cl)c1 [4-(3-chloro-4-cyclopropoxyphenyl)-5H,6H,8H-pyrano[3,4-d]pyrimidin-8-one] | 100
16 | Cc1nc2c(Cl)cc(-c3cc(C(=O)O)ncn3)cc2o1 [6-(4-chloro-2-methyl-1,3-benzoxazol-6-yl)pyrimidine-4-carboxylic acid] | 102
17 | CC(C)Oc1ccc(-c2ccnc(C(=O)O)c2)cc1Cl [4-(3-Chloro-4-isopropoxy-phenyl)-pyridine-2-carboxylic acid] | 80
18 | CN1CCCc2cc(-c3cc(C(=O)O)ncn3)cc(Cl)c21 [6-(8-chloro-1-methyl-1,2,3,4-tetrahydroquinolin-6-yl)pyrimidine-4-carboxylic acid] | 100
19 | O=C([O-])c1cc(-c2cc(Cl)c3ncccc3c2)ncn1.[Na+] [6-(8-chloroquinolin-6-yl)pyrimidine-4-carboxylate] | 100
20 | CC(Oc1ccc(-c2cc(C(=O)O)ncn2)cc1Cl)C(F)(F)F (centres unmarked) [6-[3-Chloro-4-(2,2,2-trifluoro-1-methyl-ethoxy)-phenyl]-pyrimidine-4-carboxylic acid] | 94
21 | O=C(OC[C@H]1OC(O)[C@H](O)[C@@H](O)[C@@H]1O)c1cc(-c2ccc(OC3CC3)c(Cl)c2)ncn1 (stereo partly drawn) [[(2R,3S,4S,5R)-3,4,5,6-tetrahydroxyoxan-2-yl]methyl 6-(3-chloro-4-cyclopropoxyphenyl)pyrimidine-4-carboxylate] | 102
22 | Cn1c(=O)oc2c(Cl)cc(-c3cc(C(=O)O)ncn3)cc21 [6-(7-chloro-3-methyl-2-oxo-2,3-dihydro-1,3-benzoxazol-5-yl)pyrimidine-4-carboxylic acid] | 100

Row | Structure (SMILES) | % Inhibition at 10 uM* [%]
23 | CN(C)Cc1ccc(-c2cc(C(=O)O)ncn2)cc1Cl [6-{3-chloro-4-[(dimethylamino)methyl]phenyl}pyrimidine-4-carboxylic acid] | 65
24 | COC(C)c1ccc(-c2cc(C(=O)O)ncn2)cc1Cl (centres unmarked) [6-[3-chloro-4-(1-methoxyethyl)phenyl]pyrimidine-4-carboxylic acid] | 101
25 | CCC(C)Oc1ccc(-c2ccnc(C(=O)O)c2)cc1Cl (stereo in doubt) | 82
26 | O=C(O)c1cc(-c2ccc(C(=O)C3CC3)c(Cl)c2)ncn1 [6-(3-chloro-4-cyclopropanecarbonylphenyl)pyrimidine-4-carboxylic acid] | 101
27 | CN(c1ccc(-c2cc(C(=O)O)ncn2)cc1Cl)C1CC1 [6-{3-chloro-4-[cyclopropyl(methyl)amino]phenyl}pyrimidine-4-carboxylic acid] | 96
28 | CC(C)c1ccc(-c2cc(C(=O)O)ncn2)cc1F [6-(3-Fluoro-4-isopropyl-phenyl)-pyrimidine-4-carboxylic acid] | 85
29 | Cc1nc(C(=O)O)cc(-c2ccc(OC(C)C)c(Cl)c2)n1 [6-(3-Chloro-4-isopropoxy-phenyl)-2-methyl-pyrimidine-4-carboxylic acid] | 70
30 | Cc1nc(C(=O)O)cc(-c2ccc(C)c(F)c2)n1 [6-(3-Fluoro-4-methyl-phenyl)-2-methyl-pyrimidine-4-carboxylic acid] | 96
31 | O=C(O)c1cc(-c2ccc(OC3CCNC3)c(Cl)c2)ncn1 (centres unmarked) [6-[3-Chloro-4-(pyrrolidin-3-yloxy)-phenyl]-pyrimidine-4-carboxylic acid] | 80
32 | CS(=O)(=O)c1ccc(-c2cc(C(=O)O)ncn2)cc1Cl [6-[3-chloro-4-(methylsulfonyl)phenyl]pyrimidine-4-carboxylic acid] | 100
33 | CC(C)c1ccc(-c2cc(C(=O)O)ncn2)cc1Cl [6-(3-Chloro-4-isopropyl-phenyl)-pyrimidine-4-carboxylic acid] | 100
34 | CSc1ccc(-c2cc(C(=O)O)ncn2)cc1Cl [6-[3-chloro-4-(methylsulfanyl)phenyl]pyrimidine-4-carboxylic acid] | 103
35 | Cc1c(C(=O)O)ncnc1-c1ccc(OC2CC2)c(Cl)c1 [6-(3-chloro-4-cyclopropoxyphenyl)-5-methylpyrimidine-4-carboxylate] | 100
36 | O=C(O)c1cc(-c2cc(Cl)c3c(c2)CCCO3)ncn1 [6-(8-Chloro-chroman-6-yl)-pyrimidine-4-carboxylic acid] | 100
37 | O=S(=O)(Nc1cc(-c2ccc(OC3CC3)c(Cl)c2)ncn1)c1ccccc1 [N-[6-(3-chloro-4-cyclopropoxyphenyl)pyrimidin-4-yl]benzenesulfonamide] | 73
38 | O=C(O)c1ncnc(-c2ccc(OC3CC3)c(Cl)c2)c1CO [6-(3-chloro-4-cyclopropoxyphenyl)-5-(hydroxymethyl)pyrimidine-4-carboxylic acid] | 100
39 | Cc1nc2cc(-c3cc(C(=O)O)ncn3)cc(Cl)c2o1 [6-(7-chloro-2-methyl-1,3-benzoxazol-5-yl)pyrimidine-4-carboxylic acid] | 102
40 | O=S(=O)(Nc1cc(-c2ccc(OC3CC3)c(Cl)c2)ncn1)C1CC1 [N-[6-(3-chloro-4-cyclopropoxyphenyl)pyrimidin-4-yl]cyclopropanesulfonamide] | 33
41 | O=C(O)c1cc(-c2ccc(OC3CC3)c(Cl)c2)ccn1 [4-(3-Chloro-4-cyclopropoxy-phenyl)-pyridine-2-carboxylic acid] | 100
42 | O=C(O)c1cc(-c2ccc3c(c2)OCO3)ncn1 [6-(2H-1,3-benzodioxol-5-yl)pyrimidine-4-carboxylic acid] | 101
43 | O=C(O)c1cc(-c2ccc(NC3CC3)c(Cl)c2)ncn1 [6-[3-chloro-4-(cyclopropylamino)phenyl]pyrimidine-4-carboxylic acid] | 101
44 | O=C(O)c1cc(-c2ccc(C(O)C3CC3)c(Cl)c2)ncn1 (centres unmarked) [6-{3-chloro-4-[cyclopropyl(hydroxy)methyl]phenyl}pyrimidine-4-carboxylic acid] | 90
